Measurements published in patent publication US20100168112A1, “2-Substituted and 4-substituted aryl nitrone compounds” (RENOVIS, INC., priority 2004, published 2010).
Read-outs that look alike come from different tables or passages of the source.

Columns and labels:
[1] = test system: CCI rats; assay: Mechanical allodynia in mononeuropathic pain model (chronic constrictive injury, CCI, Bennett model); type: in vivo, SD rats; details: for PWT ipsilateral hind paw (von Frey): 50 mg/kg p.o. single dose, mean ± SEM; for anti-allodynic effect on ipsilateral hind paw vs vehicle (in words): single dose 50 mg/kg, p.o.
Excerpt: Adult male SD rats weighing 250-300 gm (Charles River Laboratories, San Diego, Calif.) were used. The animal room was lighted artificially at a 12-hr light-dark cycle (7:00 A.M. to 7:00 P.M) with water and food supply ad libitum. Animals were allocated randomly into groups. Seven days before establishing the mononeuropathic pain disease model, rats were trained on a metal mesh floor, covered with a plastic box (10×10×18 cm) 1-2 hr per day to habituate. During the habituating phase, non-painful tactile stimulation on the plantar surface of each hind paw was induced by a set of calibrated von Frey filaments, through the mesh floor, as described in example 2.
Following the 7-day training phase, the animals were anesthetized by i.p. injection of sodium pentobarbital (65 mg/kg, Abbott Lab, Chicago, Ill.). Under aseptic procedures, the skin of the left thigh was cut open for ˜2 cm. Mid-thigh level of the common sciatic nerve was exposed after blunt separation of the muscles. Two 4-0 silk and one 4-0 chromic gut sutures (both from Ethicon, Somerville, N.J.) were loosely ligated around the nerve, with a 1-1.5 mm interval between each of them. Skin wound was then close with wound clips. The right side (i.e., the contralateral side) was not surgically injured. After recovery from surgery, rats showing post-surgery neurological deficits or poor grooming were excluded from the experiments. This surgical procedure (i.e., chronic constrictive injury, CCI, or Bennett model) to establish mononeuropathic pain disease model has been described elsewhere (Bennett, G. J. and Xie, Y. K.: A peripheral mononeuropathy in rat that produces disorders of pain sensation like those seen in man. Pain, 33: 87-107, 1988).
On days 1, 3, 4, 7, 9, 11, and 14 after surgery, animals were tested for mechanical allodynia with von Frey filaments as described previously. On or around post-surgical day 14, the ipsilateral hind paw, felt to 5 grams, an indication of allodynia began to manifest mechanical allodynia (i.e., amplified response to non-painful tactile stimulation by von Frey filaments). The contralateral hind paws remained above the 5-gram level (i.e., no allodynia).
After manifestation of this allodynia, Compound 62 (50 mg/kg, p.o.), Compound 63 (50 mg/kg, p.o.), Compound 66 (50 mg/kg, p.o.), Compound 23 (50 mg/kg, p.o.), 4-hydroxy-tempol (TEMPOL, 50 mg/kg, p.o.), or piroxicam (a COX1 inhibitor, 50 mg/kg, p.o.) were administered to randomly-assigned animals. Changes of mechanical allodynia in the ipsilateral hind paw were recorded at several time points over the course of up to 24 hr.

[2] = Brain penetration after single oral dose in rats; type: in vivo; details: Sprague-Dawley, rat, single oral dose (compound 26 5 mg/kg, 62 15 mg/kg, 20, 63 and 66 50 mg/kg), at or near Tmax
Procedure: Nitrone compounds of this invention were formulated individually as suspensions and administered as a single dose to Sprague-Dawley rats via oral gavage (compound 26 at 5 mg/kg, compound 62 at 15 mg/kg, compounds 20, 63 and 66 at 50 mg/kg). Plasma samples were obtained at or near Tmax projected at the given dose for each compound and the animals were euthanized using carbon dioxide. Immediately following euthanization, cerebrospinal fluid (CSF) was obtained by cisternal puncture of the atlanto-occipital membrane and drawn from the magnum cisternum. The brain was first perfused intracardially with ˜150 mL of ice-cold 0.1 M Phosphate Buffered Saline (PBS) at pH7.4. Following the removal of the dura, the brain was weighed. The brain was then dissected into smaller pieces and rinsed twice with ˜10 mL PBS. The brain, CSF, and plasma samples were frozen on dry ice and stored at −80° C. before analysis. CSF and plasma samples were subjected to a protein precipitation method prior to LC/MS/MS analysis. Blank rat plasma and CSF were used accordingly for diluting the samples when needed. Bioanalytical standard curves were prepared by spiking a stock solution of the nitrone compound to blank rat plasma or CSF to achieve a quantitation curve range and analyzed the standards in the same manner as the samples. Brain samples underwent homogenization in 2 mL water and liquid-liquid extraction with ethyl acetate three times. The combined organic phase for each sample was evaporated under a stream of nitrogen at 40° C. and the residues were reconstituted with an appropriate amount of mobile phase B (referring to LC/MS/MS method section). A bioanalytical standard curve for brain analysis was prepared by spiking 100 μL of stock solution directly into sliced blank rat brain purchased from Pelfreez. The spiked brains then underwent the same processing procedures for the dosed samples.
The reconstituted samples were vortexed and incubated to fully dissolve the analytes. The samples were centrifuged, and then further diluted with Mobile phase B if necessary before LC/MS/MS analysis. Nitrone compound levels in the brain were calculated based on the measured concentration, the volume of reconstitution and brain weight to yield a unit of ng (of compound) per g of brain. To calculate the brain/plasma ratio (w/v), it was assumed that 1 g of brain tissue takes approximately 1 mL of volume.

[3] = Microsomal stability in human liver microsomes; type: in vitro ADME; details: NADPH, 37° C.
Outline: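 Compound (~500 ng/ml) incubated at 37°C for up to 30 min with 0.5 mg/ml microsomal protein and 1 mM NADPH in 0.1 M PBS pH7.4, after 3–5 min preincubation without NADPH. Sprague-Dawley rat or human microsomes; acetonitrile-quenched timepoints analysed by LC/MS/MS for half-life or percent remaining.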

[4] = post-dosing time −15 min (pre-dose)
[5] = CSF and plasma, read-out: CSF/Plasma (%)
[6] = brain and plasma, 1 g brain assumed 1 mL, read-out: Brain/Plasma (%)

SMILES	PWT ipsilateral hind paw (von Frey) ([1]; post-dosing time 30 min) [gm]	PWT ipsilateral hind paw (von Frey) ([1]; post-dosing time 60 min) [gm]	PWT ipsilateral hind paw (von Frey) ([1]; post-dosing time 300 min) [gm]	PWT ipsilateral hind paw (von Frey) ([1]; post-dosing time 1440 min) [gm]	PWT ipsilateral hind paw (von Frey) [1, 4] [gm]	anti-allodynic effect on ipsilateral hind paw vs vehicle (in words) [1]	Kp [2, 5]	Kp [2, 6]	% of Nitrone Remaining at 30 min (Human) [3] [%]	PWT ipsilateral hind paw (von Frey) ([1]; post-dosing time 5 min) [gm]	PWT ipsilateral hind paw (von Frey) ([1]; post-dosing time 120 min) [gm]	PWT ipsilateral hind paw (von Frey) ([1]; post-dosing time 240 min) [gm]	PWT ipsilateral hind paw (von Frey) ([1]; post-dosing time 360 min) [gm]
CC(C)(C)/[N+]([O-])=C/c1ccccc1S(C)(=O)=O [Compound 66, N-tert-Butyl-C-(2-methanesulfonylphenyl)nitrone]	5.33 ± 0.42	4.12 ± 0.91	5.33 ± 1.12	1.57 ± 0.23	1.97 ± 0.84	no significant anti-allodynic effect	0.936	0.224	–	–	–	–	–
CC(C)(C)/[N+]([O-])=C/c1ccc(S(=O)(=O)N2CCOCC2)cc1 [Compound 23, N-(tert-Butyl)-C-[4-(morpholine-4-sulfonyl)phenyl]nitrone]	7.67 ± 0.80	8.17 ± 1.52	4.43 ± 1.35	4.67 ± 0.84	2.43 ± 0.54	statistically significant anti-allodynic effects	–	–	–	–	–	–	–
CCS(=O)(=O)c1ccc(/C=[N+](\[O-])C(C)(C)C)c(S(=O)(=O)CC)c1 [Compound 64, N-tert-Butyl-C-(2,4-bis-ethanesulfonylphenyl)nitrone]	–	–	–	–	–	–	–	–	100	–	–	–	–
CC(C)(C)/[N+]([O-])=C/c1ccc(S(C)(=O)=O)cc1S(C)(=O)=O [Compound 63, N-tert-Butyl-C-(2,4-bis-methanesulfonylphenyl)nitrone]	18.4 ± 10.42	18.8 ± 11.29	5.20 ± 1.63	3.60 ± 1.30	3.88 ± 0.97	produced anti-allodynic effects on ipsilateral hind paws	0.336	0.189	99	–	–	–	–
CC(C)(C)/[N+]([O-])=C/c1ccc(S(N)(=O)=O)cc1 [Compound 20, N-(tert-Butyl)-C-[4-(sulfamoyl)phenyl]nitrone]	–	–	–	–	–	–	0.144	0.229	–	–	–	–	–
CC(C)(C)/[N+]([O-])=C/c1ccc(S(=O)(=O)Nc2cccnc2)cc1 [Compound 26, N-(tert-Butyl)-C-[4-(pyridin-3-ylsulfamoyl)phenyl]nitrone]	–	–	–	–	–	–	0.0012	0.0056	–	–	–	–	–
CC(C)(C)/[N+]([O-])=C/c1ccc(S(C)(=O)=O)cc1 [Compound 62, N-tert-Butyl-C-[4-(methanesulfonyl)phenyl]nitrone]	–	–	–	3.43 ± 1.02	3.17 ± 1.10	rapid onset but short-lasting anti-allodynic effect	0.786	0.625	100	2.86 ± 0.94	16.71 ± 3.44	15.14 ± 3.90	5.46 ± 1.46
